Like-named read-outs stand apart in the source and are kept apart here.
What was measured:
[1] = target: T1, medaka Esr1 (mEsr1) (Oryzias latipes, UniProt P50241); test: cell-based; set-up: species or system Japanese medaka (Oryzias latipes); settings: for In vitro positive: Esr: mode of action in which EC50 or PC10 was obtained in RGA
T1 sequence (P50241 1-620): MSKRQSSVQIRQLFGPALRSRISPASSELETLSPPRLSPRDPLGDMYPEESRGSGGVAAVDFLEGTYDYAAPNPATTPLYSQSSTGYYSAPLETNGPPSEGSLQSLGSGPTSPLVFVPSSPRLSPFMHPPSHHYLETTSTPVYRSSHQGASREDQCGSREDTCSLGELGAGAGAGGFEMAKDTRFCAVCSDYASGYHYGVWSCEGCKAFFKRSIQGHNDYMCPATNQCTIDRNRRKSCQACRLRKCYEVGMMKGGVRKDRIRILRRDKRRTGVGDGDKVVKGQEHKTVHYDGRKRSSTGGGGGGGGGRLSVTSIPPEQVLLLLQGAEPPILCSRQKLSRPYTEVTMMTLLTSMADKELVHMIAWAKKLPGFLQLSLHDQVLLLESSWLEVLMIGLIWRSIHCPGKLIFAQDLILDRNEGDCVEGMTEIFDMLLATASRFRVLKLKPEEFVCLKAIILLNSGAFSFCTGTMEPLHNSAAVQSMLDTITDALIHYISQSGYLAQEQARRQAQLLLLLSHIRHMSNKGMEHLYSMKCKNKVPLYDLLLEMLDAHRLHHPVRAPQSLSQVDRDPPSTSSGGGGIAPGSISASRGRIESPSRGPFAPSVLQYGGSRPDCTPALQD

[2] = target: T1, medaka Esr1 (mEsr1); test: Medaka Esr1 reporter gene assay, antagonist assay; assay type: cell-based, Japanese medaka (Oryzias latipes); settings: E2 spiked at 1.0 nM (B); MAC = 1.0 × 10^−5 M
[3] = target: T2, medaka ARβ (mArβ) (Oryzias latipes, UniProt D1MV73); test: Medaka ARβ reporter gene assay, agonist assay; assay type: cell-based, Japanese medaka (Oryzias latipes); settings: for Agonistic activity: MAC = 1.0 × 10^−5 M
T2 sequence (D1MV73 1-744): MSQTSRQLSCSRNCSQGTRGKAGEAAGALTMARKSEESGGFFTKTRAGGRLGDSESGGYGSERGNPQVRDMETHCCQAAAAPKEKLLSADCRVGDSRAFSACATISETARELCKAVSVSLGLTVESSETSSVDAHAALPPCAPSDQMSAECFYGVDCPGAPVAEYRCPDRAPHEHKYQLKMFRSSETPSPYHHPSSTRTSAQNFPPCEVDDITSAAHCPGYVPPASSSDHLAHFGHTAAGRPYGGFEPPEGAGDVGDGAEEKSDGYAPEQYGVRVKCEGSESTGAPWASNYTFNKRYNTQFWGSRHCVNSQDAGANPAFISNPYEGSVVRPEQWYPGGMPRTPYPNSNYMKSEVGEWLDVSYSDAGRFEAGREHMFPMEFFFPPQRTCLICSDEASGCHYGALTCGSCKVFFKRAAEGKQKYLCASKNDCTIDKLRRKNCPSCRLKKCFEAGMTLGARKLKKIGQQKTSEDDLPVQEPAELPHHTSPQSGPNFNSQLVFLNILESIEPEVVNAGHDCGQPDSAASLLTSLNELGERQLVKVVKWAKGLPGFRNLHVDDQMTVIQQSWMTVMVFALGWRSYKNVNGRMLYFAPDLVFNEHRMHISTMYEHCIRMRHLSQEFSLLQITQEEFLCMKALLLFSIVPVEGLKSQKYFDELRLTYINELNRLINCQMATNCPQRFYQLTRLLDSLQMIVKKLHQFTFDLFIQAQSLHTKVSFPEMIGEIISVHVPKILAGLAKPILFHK

[4] = target: T2, medaka ARβ (mArβ); test: Medaka ARβ reporter gene assay, antagonist assay; assay type: cell-based, Japanese medaka (Oryzias latipes)
[5] = tested on: Japanese medaka (Oryzias latipes); test: Fish Short‐Term Reproduction Assay; assay type: in vivo; settings: for Fertility rate / Hepatic VTG, female / Hepatic VTG, male / Mortality / Mortality, number of dead fish / Number of fertilized eggs (per female per day) / Number of total eggs (per female per day) / SSC female (joint plates with papillary processes) / SSC male (joint plates with papillary processes) / LOEC, elevated hepatic VTG in males: 21 d; for LOECREPRO: LOEC on reproduction (fecundity and/or fertility); for minimal effective concentration: Oryzias latipes, 504 h, read-out: LOECmVTG; for LOECTOX: lowest observed effect concentration on mortality; for GSI Female / GSI Male / HSI Female / HSI Male / Length Female / Length Male / Weight Female / Weight Male: completion of exposure
[6] = 100 μg/L measured, sig. ↓ vs control
[7] = measured concentration 5.69 μg/L
[8] = measured concentration 28.8 μg/L
[9] = measured concentration 100 μg/L
[10] = measured concentration 25.3 μg/L
[11] = measured concentration 82.3 μg/L
[12] = measured concentration 250 μg/L

CCC(CC)Nc1c([N+](=O)[O-])cc(C)c(C)c1[N+](=O)[O-] [PDM, Pendimethalin]
EC50 [1]: 3.3 µM
In vitro positive: Esr [1]: Esr
Antagonistic activity [2]: NE (MAC = 1.0 × 10^−5 M)^(B)
Agonistic activity [3]: NE (MAC = 1.0 × 10^−5 M)
IC50 ([4]; Antagonistic activity IC50, 11‐KT spiked at 50 nM (D)): 3.1 µM
In vitro positive: aAr ([4]; mode of action in which IC50 or IC30 was obtained in RGA): aAr
Antagonistic activity on mArβ (in words) ([4]; transcriptional activity on mArβ by 11KT): inhibitory potency
Fertility rate ([5]; 5.69 μg/L measured): 93 ± 0.9%
Hepatic VTG, female ([5]; 5.69 μg/L measured): 649 ± 200 ng/mg‐liver
Hepatic VTG, male ([5]; 5.69 μg/L measured): 0.5 ± 0.0 ng/mg‐liver
Mortality ([5]; 5.69 μg/L measured): 0.0%
Mortality, number of dead fish ([5]; 5.69 μg/L measured): 0
Number of fertilized eggs (per female per day) ([5]; 5.69 μg/L measured): 19 ± 3.1
Number of total eggs (per female per day) ([5]; 5.69 μg/L measured): 21 ± 3.4
SSC female (joint plates with papillary processes) ([5]; 5.69 μg/L measured): 0 ± 0
SSC male (joint plates with papillary processes) ([5]; 5.69 μg/L measured): 85 ± 11
Fertility rate ([5]; 28.8 μg/L measured): 88 ± 4.9%
Hepatic VTG, female ([5]; 28.8 μg/L measured): 933 ± 692 ng/mg‐liver
Hepatic VTG, male ([5]; 28.8 μg/L measured): 5.7 ± 6.6 ng/mg‐liver
Mortality ([5]; 28.8 μg/L measured): 4.2%
Mortality, number of dead fish ([5]; 28.8 μg/L measured): 1
Number of fertilized eggs (per female per day) ([5]; 28.8 μg/L measured): 18 ± 3.6
Number of total eggs (per female per day) ([5]; 28.8 μg/L measured): 20 ± 3.9
SSC female (joint plates with papillary processes) ([5]; 28.8 μg/L measured): 0 ± 0
SSC male (joint plates with papillary processes) ([5]; 28.8 μg/L measured): 80 ± 8.2
Hepatic VTG, female ([5]; 100 μg/L measured): 813 ± 157 ng/mg‐liver
Mortality ([5]; 100 μg/L measured): 8.3%
Mortality, number of dead fish ([5]; 100 μg/L measured): 2
Number of total eggs (per female per day) ([5]; 100 μg/L measured): 19 ± 2.1
SSC female (joint plates with papillary processes) ([5]; 100 μg/L measured): 0 ± 0
SSC male (joint plates with papillary processes) ([5]; 100 μg/L measured): 80 ± 13
Hepatic VTG, male ([5]; 100 μg/L measured, sig. ↑ vs control): 774 ± 290 ng/mg‐liver
Fertility rate [5, 6]: 62 ± 11%
Number of fertilized eggs (per female per day) [5, 6]: 12 ± 2.3
LOEC, elevated hepatic VTG in males [5]: 100 µg/L
LOECREPRO [5]: 100 µg/L
minimal effective concentration [5]: 0.1 µg/mL
Fertility rate (in words) ([5]; at concentrations that did not affect number of total eggs): significant decrease
LOECREPRO (reduction in fecundity or fertility) ([5]; concentrations without overt toxicity): 100 µg/L
LOECTOX [5]: ND (>100) μg/L
GSI Female [5, 7]: 10.7 ± 0.8%
GSI Male [5, 7]: 0.64 ± 0.11%
HSI Female [5, 7]: 4.5 ± 0.70%
HSI Male [5, 7]: 2.7 ± 0.16%
Length Female [5, 7]: 32.4 ± 0.7 mm
Length Male [5, 7]: 31.9 ± 0.7 mm
Weight Female [5, 7]: 427 ± 25 mg
Weight Male [5, 7]: 366 ± 25 mg
GSI Female [5, 8]: 11.3 ± 0.8%
GSI Male [5, 8]: 0.55 ± 0.11%
HSI Male [5, 8]: 2.7 ± 0.28%
Length Female [5, 8]: 33.1 ± 0.9 mm
Length Male [5, 8]: 32.2 ± 0.2 mm
Weight Female [5, 8]: 455 ± 46 mg
Weight Male [5, 8]: 393 ± 20 mg
GSI Female [5, 9]: 9.7 ± 0.3%
GSI Male [5, 9]: 0.60 ± 0.20%
HSI Female [5, 9]: 4.4 ± 1.04%
HSI Male [5, 9]: 2.9 ± 0.45%
Length Female [5, 9]: 31.4 ± 0.8 mm
Length Male [5, 9]: 31.9 ± 0.7 mm
Weight Female [5, 9]: 423 ± 30 mg
Weight Male [5, 9]: 389 ± 28 mg

CC(C)(C)CC(C)(C)c1ccc(O)cc1 [Chemical 4tOP, 4‐tert‐Octylphenol]
Agonistic activity [3]: NE (MAC = 1.0 × 10^−5 M)
Antagonistic activity ([4]; 11‐KT spiked at 50 nM (D), MAC = 1.0 × 10^−5 M): NE (MAC = 1.0 × 10^−5 M)^(D)
Fertility rate ([5]; 25.3 μg/L measured): 91 ± 5.1%
Hepatic VTG, female ([5]; 25.3 μg/L measured): 3,710 ± 617 ng/mg‐liver
Hepatic VTG, male ([5]; 25.3 μg/L measured): 3.2 ± 2.2 ng/mg‐liver
Mortality ([5]; 25.3 μg/L measured): 0.0%
Mortality, number of dead fish ([5]; 25.3 μg/L measured): 0
Number of fertilized eggs (per female per day) ([5]; 25.3 μg/L measured): 24 ± 3.5
Number of total eggs (per female per day) ([5]; 25.3 μg/L measured): 26 ± 3.2
SSC female (joint plates with papillary processes) ([5]; 25.3 μg/L measured): 0 ± 0
SSC male (joint plates with papillary processes) ([5]; 25.3 μg/L measured): 99 ± 4.1
Fertility rate ([5]; 82.3 μg/L measured): 92 ± 2.1%
Hepatic VTG, female ([5]; 82.3 μg/L measured): 4,380 ± 1,350 ng/mg‐liver
Mortality ([5]; 82.3 μg/L measured): 4.2%
Mortality, number of dead fish ([5]; 82.3 μg/L measured): 1
Number of fertilized eggs (per female per day) ([5]; 82.3 μg/L measured): 24 ± 1.5
Number of total eggs (per female per day) ([5]; 82.3 μg/L measured): 27 ± 1.3
SSC female (joint plates with papillary processes) ([5]; 82.3 μg/L measured): 0 ± 0
Hepatic VTG, male ([5]; 82.3 μg/L measured, sig. ↑ vs control): 5.6 ± 1.9 ng/mg‐liver
Fertility rate ([5]; 250 μg/L measured): 89 ± 3.3%
Hepatic VTG, female ([5]; 250 μg/L measured): 5,290 ± 2030 ng/mg‐liver
Mortality ([5]; 250 μg/L measured): 0.0%
Mortality, number of dead fish ([5]; 250 μg/L measured): 0
Number of fertilized eggs (per female per day) ([5]; 250 μg/L measured): 21 ± 2.6
Number of total eggs (per female per day) ([5]; 250 μg/L measured): 23 ± 2.6
SSC female (joint plates with papillary processes) ([5]; 250 μg/L measured): 0 ± 0
SSC male (joint plates with papillary processes) ([5]; 250 μg/L measured): 98 ± 8.5
LOEC, elevated hepatic VTG in males [5]: 82.3 µg/L
LOECREPRO [5]: ND (>250) μg/L
minimal effective concentration [5]: 0.0823 µg/mL
LOECTOX [5]: ND (>250) μg/L
GSI Female [5, 10]: 11.4 ± 1.6%
GSI Male [5, 10]: 0.83 ± 0.11%
HSI Female [5, 10]: 4.6 ± 0.82%
HSI Male [5, 10]: 2.1 ± 0.16%
Length Female [5, 10]: 37.8 ± 0.5 mm
Length Male [5, 10]: 37.0 ± 0.9 mm
Weight Female [5, 10]: 625 ± 55 mg
Weight Male [5, 10]: 608 ± 31 mg
GSI Female [5, 11]: 10.7 ± 0.4%
GSI Male [5, 11]: 0.81 ± 0.08%
HSI Female [5, 11]: 4.1 ± 0.58%
HSI Male [5, 11]: 2.6 ± 0.10%
Length Female [5, 11]: 37.0 ± 0.2 mm
Length Male [5, 11]: 37.9 ± 0.6 mm
Weight Female [5, 11]: 599 ± 16 mg
Weight Male [5, 11]: 630 ± 44 mg
GSI Female [5, 12]: 11.1 ± 2.0%
GSI Male [5, 12]: 0.81 ± 0.08%
HSI Female [5, 12]: 4.5 ± 0.29%
HSI Male [5, 12]: 2.9 ± 0.28%
Length Female [5, 12]: 36.7 ± 0.5 mm
Length Male [5, 12]: 37.4 ± 0.4 mm
Weight Female [5, 12]: 605 ± 10 mg
Weight Male [5, 12]: 626 ± 21 mg

C[C@]12CC(=O)[C@H]3[C@@H](CCC4=CC(=O)CC[C@@]43C)[C@@H]1CC[C@@H]2O [Chemical 11KT, 11‐ketotestosterone, reference compound]
EC50 ([3]; read-out: Agonistic activity EC50, geometric mean, positive control, n = 5): 0.0058 µM

Oc1cccc2ccccc12 [Chemical 1NT, 1‐Naphtol]
In vitro positive: Esr [1]: Esr
EC50 ([1]; read-out: Agonistic activity EC50, HEK293 cells): 78 µM
Antagonistic activity [2]: NE (MAC = 1.0 × 10^−5 M)^(B)
Agonistic activity PC10 ([3]; HepG2 cells, concentration with 10% of maximum activity of 11KT): PC10 = 3.3 × 10^−5 M
Agonistic activity on mArβ (in words) ([3]; only PC10 and not EC50 could be estimated): positive agonistic activity
Antagonistic activity ([4]; 11‐KT spiked at 10 nM (C), MAC = 1.0 × 10^−4 M): NE (MAC = 1.0 × 10^−4 M)^(C)
